From PubChem BioAssay AID256 (DTP/NCI, 2004)
Where “and” joins values, the source holds several entries; their conditions need not be identical. Equal values may be shown once. Inconclusive results and toxic doses are left out. Rule for the calls: active = survival T/C of 150% or more; inactive = T/C below 125% in these data.

Tested on: CD2F1 mice, L1210 leukemia ip, survival T/C
Experiment: NCI In Vivo Anticancer Drug Screen. Data for tumor model L1210 Leukemia (intraperitoneal) in CD2F1 (CDF1) mice
Conditions: higher = longer survival
Description: The antitumor activity of compounds was measured in mice bearing transplantable tumors. Survival or tumor size were measured and the results are expressed as the measurement made in the treated group (T) divided by the measurement made in the vehicle treated control group (C). The tumor model used in this assay is L1210 Leukemia (intraperitoneal) in CD2F1 (CDF1) mice

[1] = endpoint: mean survival time, dose: 50.0 mg/kg/injection, schedule: Q01DX009 (ip), vehicle: other
[2] = endpoint: mean survival time, dose: 100.0 mg/kg/injection, schedule: Q01DX009 (ip), vehicle: other
[3] = endpoint: mean survival time, dose: 200.0 mg/kg/injection, schedule: Q01DX009 (ip), vehicle: other
[4] = endpoint: mean survival time, dose: 50.0 mg/kg/injection, schedule: Q01DX009 (ip), vehicle: saline with Tween-80
[5] = endpoint: mean survival time, dose: 100.0 mg/kg/injection, schedule: Q01DX009 (ip), vehicle: saline with Tween-80
[6] = endpoint: mean survival time, dose: 200.0 mg/kg/injection, schedule: Q01DX009 (ip), vehicle: saline with Tween-80
[7] = endpoint: mean survival time, dose: 100.0 mg/kg/injection, schedule: Q04DX003 (ip), vehicle: saline with Tween-80
[8] = endpoint: mean survival time, dose: 200.0 mg/kg/injection, schedule: Q04DX003 (ip), vehicle: saline with Tween-80
[9] = endpoint: mean survival time, dose: 400.0 mg/kg/injection, schedule: Q01DX009 (ip), vehicle: saline with Tween-80
[10] = endpoint: mean survival time, dose: 400.0 mg/kg/injection, schedule: Q04DX003 (ip), vehicle: saline with Tween-80

Measured: T/C

Nc1ccc(SCCCc2c(N)nc(N)nc2N)cc1
inactive: endpoint: mean survival time, dose: 100.0 mg/kg/injection, schedule: Q01DX001 (ip), vehicle: other 100 % of control | endpoint: mean survival time, dose: 200.0 mg/kg/injection, schedule: Q01DX001 (ip), vehicle: other 96 % of control

COc1nc(N)nc2c1nnn2C1OC(CO)C(O)C1O (centres undefined)
inactive: endpoint: mean survival time, dose: 50.0 mg/kg/injection, schedule: Q01DX009 (ip), vehicle: Klucel (hydroxypropylcellulose) (HPC) 117 % of control

Cn1c(=O)[nH]c2nncnc2c1=O
inactive: endpoint: mean survival time, dose: 2.0 mg/kg/injection, schedule: Q01DX009 (ip), vehicle: water 103 % of control | endpoint: mean survival time, dose: 4.0 mg/kg/injection, schedule: Q01DX009 (ip), vehicle: water 97 % of control | endpoint: mean survival time, dose: 8.0 mg/kg/injection, schedule: Q01DX009 (ip), vehicle: water 97 % of control | endpoint: mean survival time, dose: 16.0 mg/kg/injection, schedule: Q01DX009 (ip), vehicle: water 98 % of control | endpoint: mean survival time, dose: 32.0 mg/kg/injection, schedule: Q01DX009 (ip), vehicle: water 101 % of control | endpoint: mean survival time, dose: 375.0 micrograms/kg/injection, schedule: Q01DX009 (ip), vehicle: saline 100 % of control | endpoint: mean survival time, dose: 750.0 micrograms/kg/injection, schedule: Q01DX009 (ip), vehicle: saline 104 % of control | endpoint: mean survival time, dose: 1500.0 micrograms/kg/injection, schedule: Q01DX009 (ip), vehicle: saline 100 % of control | endpoint: mean survival time, dose: 3000.0 micrograms/kg/injection, schedule: Q01DX009 (ip), vehicle: saline 100 % of control

N#CC(C#N)=C1Cc2ccccc2C1
inactive: endpoint: mean survival time, dose: 12.5 mg/kg/injection, schedule: Q04DX003 (ip), vehicle: saline with Tween-80 93 % of control | endpoint: mean survival time, dose: 25.0 mg/kg/injection, schedule: Q04DX003 (ip), vehicle: saline with Tween-80 100 % of control | endpoint: mean survival time, dose: 50.0 mg/kg/injection, schedule: Q04DX003 (ip), vehicle: saline with Tween-80 94 % of control

NC(=O)Oc1cc(OC(N)=O)cc(N(CCCl)CCCl)c1
inactive: endpoint: mean survival time, dose: 12.5 mg/kg/injection, schedule: Q01DX009 (ip), vehicle: other 103 % of control | endpoint: mean survival time, dose: 25.0 mg/kg/injection, schedule: Q01DX001 (ip), vehicle: water 98 % of control | endpoint: mean survival time, dose: 25.0 mg/kg/injection, schedule: Q01DX009 (ip), vehicle: other 114 % of control | endpoint: mean survival time, dose: 50.0 mg/kg/injection, schedule: Q01DX001 (ip), vehicle: water 108 % of control | [1] 111 % of control | endpoint: mean survival time, dose: 100.0 mg/kg/injection, schedule: Q01DX001 (ip), vehicle: water 108 % of control | [2] 116 % of control | endpoint: mean survival time, dose: 200.0 mg/kg/injection, schedule: Q01DX001 (ip), vehicle: water 117 % of control | [3] 104 % of control | endpoint: mean survival time, dose: 400.0 mg/kg/injection, schedule: Q01DX001 (ip), vehicle: water 120 % of control

O/N=C1/C2CCC(C2)C1C(O)(C(F)(F)F)C(F)(F)F (centres undefined)
inactive: [4] 93 % of control | endpoint: mean survival time, dose: 100.0 mg/kg/injection, schedule: Q01DX001 (ip), vehicle: saline with Tween-80 102 % of control | [5] 101 % of control | endpoint: mean survival time, dose: 200.0 mg/kg/injection, schedule: Q01DX001 (ip), vehicle: saline with Tween-80 92 % of control | [6] 89 % of control

Nc1cc2c3c(cccc3c1)C(=O)N(CCN1CCCC1)C2=O
active: [4] 175 % of control
inactive: endpoint: mean survival time, dose: 3.12 mg/kg/injection, schedule: Q01DX009 (ip), vehicle: saline with Tween-80 96 % of control and 102 % of control | endpoint: mean survival time, dose: 6.25 mg/kg/injection, schedule: Q01DX009 (ip), vehicle: saline with Tween-80 101 % of control and 107 % of control | endpoint: mean survival time, dose: 12.5 mg/kg/injection, schedule: Q01DX009 (ip), vehicle: saline with Tween-80 117 % of control and 110 % of control | endpoint: mean survival time, dose: 25.0 mg/kg/injection, schedule: Q01DX009 (ip), vehicle: saline with Tween-80 113 % of control and 119 % of control and 111 % of control | [5] 86 % of control | [6] 91 % of control

BrCCC1(CCBr)CCCCC1
inactive: endpoint: median survival time, dose: 50.0 mg/kg/injection, schedule: Q01DX009 (ip), vehicle: other 104 % of control | endpoint: median survival time, dose: 200.0 mg/kg/injection, schedule: Q01DX009 (ip), vehicle: other 101 % of control | endpoint: median survival time, dose: 400.0 mg/kg/injection, schedule: Q01DX009 (ip), vehicle: other 101 % of control | endpoint: median survival time, dose: 800.0 mg/kg/injection, schedule: Q01DX009 (ip), vehicle: other 101 % of control

Cc1cc(C)c(C)c(C(C)O)c1C (centres undefined)
inactive: [4] 100 % of control | [5] 100 % of control | [6] 97 % of control

Nc1cc(Cl)nnc1Cl
inactive: [1] 97 % of control | [2] 103 % of control | endpoint: mean survival time, dose: 100.0 mg/kg/injection, schedule: Q04DX003 (ip), vehicle: saline 98 % of control | [3] 97 % of control | endpoint: mean survival time, dose: 200.0 mg/kg/injection, schedule: Q04DX003 (ip), vehicle: saline 101 % of control

COc1ccc(/C=C2\SC(=O)NC2=O)cc1
inactive: [7] 102 % of control | [8] 100 % of control

NCCC(=O)O
inactive: [5] 98 % of control | [7] 89 % of control | [6] 97 % of control | [8] 104 % of control | [9] 97 % of control | [10] 98 % of control

NC(N)=N/N=C/C/C=N/N=C(N)N
inactive: endpoint: mean survival time, dose: 30.0 mg/kg/injection, schedule: Q01DX009 (ip), vehicle: saline 91 % of control | endpoint: mean survival time, dose: 60.0 mg/kg/injection, schedule: Q01DX009 (ip), vehicle: saline 90 % of control | endpoint: mean survival time, dose: 120.0 mg/kg/injection, schedule: Q01DX009 (ip), vehicle: saline 93 % of control | endpoint: mean survival time, dose: 240.0 mg/kg/injection, schedule: Q01DX009 (ip), vehicle: saline 90 % of control | endpoint: mean survival time, dose: 480.0 mg/kg/injection, schedule: Q01DX009 (ip), vehicle: saline 90 % of control

CC(=O)NCc1cc(CNC(C)=O)c(C)cc1C
inactive: [5] 98 % of control | [7] 95 % of control | [6] 88 % of control | [8] 91 % of control | [9] 95 % of control | [10] 87 % of control

C=C(Cl)C(=NC(C)(C)C)Nc1ccccc1C
inactive: endpoint: median survival time, dose: 3.12 mg/kg/injection, schedule: Q01DX009 (ip), vehicle: Klucel (hydroxypropylcellulose) (HPC) 101 % of control | endpoint: median survival time, dose: 6.25 mg/kg/injection, schedule: Q01DX009 (ip), vehicle: Klucel (hydroxypropylcellulose) (HPC) 109 % of control | endpoint: median survival time, dose: 12.5 mg/kg/injection, schedule: Q01DX009 (ip), vehicle: Klucel (hydroxypropylcellulose) (HPC) 118 % of control | endpoint: median survival time, dose: 25.0 mg/kg/injection, schedule: Q01DX009 (ip), vehicle: Klucel (hydroxypropylcellulose) (HPC) 114 % of control | endpoint: median survival time, dose: 50.0 mg/kg/injection, schedule: Q01DX009 (ip), vehicle: Klucel (hydroxypropylcellulose) (HPC) 114 % of control | endpoint: median survival time, dose: 50.0 mg/kg/injection, schedule: Q01DX009 (ip), vehicle: saline 103 % of control | endpoint: median survival time, dose: 100.0 mg/kg/injection, schedule: Q01DX009 (ip), vehicle: saline 108 % of control | endpoint: median survival time, dose: 200.0 mg/kg/injection, schedule: Q01DX009 (ip), vehicle: saline 111 % of control

Nn1cnnc1
inactive: endpoint: mean survival time, dose: 100.0 mg/kg/injection, schedule: Q01DX001 (ip), vehicle: saline 98 % of control | endpoint: mean survival time, dose: 200.0 mg/kg/injection, schedule: Q01DX001 (ip), vehicle: saline 93 % of control

O=S(=O)(c1ccccc1)C(Cl)Cl
inactive: endpoint: mean survival time, dose: 100.0 mg/kg/injection, schedule: Q04DX003 (ip), vehicle: other 95 % of control | endpoint: mean survival time, dose: 200.0 mg/kg/injection, schedule: Q04DX003 (ip), vehicle: other 100 % of control | endpoint: mean survival time, dose: 400.0 mg/kg/injection, schedule: Q04DX003 (ip), vehicle: other 100 % of control

CSc1nc(NC2OCC(O)C(O)C2O)c(I)c(=O)[nH]1 (centres undefined)
inactive: endpoint: median survival time, dose: 12.5 mg/kg/injection, schedule: Q01DX005 (ip), vehicle: saline with Tween-80 100 % of control | endpoint: median survival time, dose: 25.0 mg/kg/injection, schedule: Q01DX005 (ip), vehicle: saline with Tween-80 100 % of control | endpoint: median survival time, dose: 50.0 mg/kg/injection, schedule: Q01DX005 (ip), vehicle: saline with Tween-80 103 % of control | endpoint: median survival time, dose: 100.0 mg/kg/injection, schedule: Q01DX005 (ip), vehicle: saline with Tween-80 107 % of control | endpoint: median survival time, dose: 200.0 mg/kg/injection, schedule: Q01DX005 (ip), vehicle: saline with Tween-80 107 % of control

CCCOc1ccc(C(N)=S)c2ccccc12
inactive: endpoint: mean survival time, dose: 100.0 mg/kg/injection, schedule: Q04DX002 (ip), vehicle: Klucel (hydroxypropylcellulose) (HPC) 105 % of control | endpoint: mean survival time, dose: 200.0 mg/kg/injection, schedule: Q04DX002 (ip), vehicle: Klucel (hydroxypropylcellulose) (HPC) 102 % of control | endpoint: mean survival time, dose: 400.0 mg/kg/injection, schedule: Q04DX002 (ip), vehicle: Klucel (hydroxypropylcellulose) (HPC) 105 % of control
